According to patent publication US20060205031A1, “Newly identified cholinephosphotransferases and ethanolaminephosphotransferases” (1) Universiteit Utrecht Holding B.V., priority 2003, published 2006):

Key:
[1] = tested on: yeast-associated SMase; assay: NBD-SM incubated with yeast cell lysates, TLC of reaction products; format: biochemical; conditions: NEM 1 mM, NBD-SM 1.8 μM, 30 min at 37° C.
Protocol: (§1) FIG. 3. NEM inhibits yeast-associated SMase but not mammalian SM synthase. (A) TLC separation of reaction products generated when NBD-SM (1.8 μM) was incubated with lysates of exponentially grown yeast cells (20 OD600 cells) in the presence (+) or absence (−) of N-ethylmaleimide (NEM; 1 mM). Reactions were in 0.35 ml RB1 buffer containing 1 μg/ml of IPC synthase inhibitor (aureobasidin A) and incubated for 30 min at 37° C. (B) TLC separation of reaction products generated when NBD-ceramide (NBD-Cer; […]) was incubated with lysates of HeLa cells (1/1: 2×10^6 cells; 1/4: 0.5×10^6 cells) in the presence (+) or absence (−) of NEM (1 mM). Reactions were in 0.35 ml PNS buffer, and incubated for 30 min at 37° C. Lipid extraction and TLC analysis were as described in Materials and methods.

[2] = tested on: mammalian SM synthase; assay: NBD-ceramide incubated with HeLa cell lysates, TLC of reaction products; format: biochemical, human; conditions: NEM 1 mM, 30 min at 37° C.
Protocol: as §1

[3] = tested on: Mammalian SM synthase; conditions: Luberto and Hannun, 1998; cited from earlier work
[4] = target: T1, human SMS1 (Homo sapiens, UniProt Q86VZ5); assay: SM synthase assay on lysates of SMS1-expressing yeast cells; format: biochemical; parameters: extent of inhibition of SMS1-mediated SM synthesis: dose or concentration left out as unconfirmed
T1 construct: members for which full-length cDNAs could be obtained were cloned into a yeast multicopy, GALL promotor plasmid; His tag (from vector pYES2.1/V5-His-TOPO) (C); made in house; host or cells: Saccharomyces cerevisiae strain IAY11 (unpurified post-nuclear lysate)
T1 sequence (Q86VZ5 1-413): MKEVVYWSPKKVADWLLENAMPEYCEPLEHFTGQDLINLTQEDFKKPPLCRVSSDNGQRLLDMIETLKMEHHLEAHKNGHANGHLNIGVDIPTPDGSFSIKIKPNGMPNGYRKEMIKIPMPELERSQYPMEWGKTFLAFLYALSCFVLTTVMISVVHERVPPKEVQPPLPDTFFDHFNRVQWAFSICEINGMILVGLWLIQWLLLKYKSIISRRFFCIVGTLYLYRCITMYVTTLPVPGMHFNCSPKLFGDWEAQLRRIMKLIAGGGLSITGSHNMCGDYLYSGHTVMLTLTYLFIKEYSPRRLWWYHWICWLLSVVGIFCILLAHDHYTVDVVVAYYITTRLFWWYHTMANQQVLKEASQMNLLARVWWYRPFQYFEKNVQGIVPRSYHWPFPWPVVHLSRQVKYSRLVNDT
Protocol: (§2) CSS-expressing yeast cells were lysed at 100 OD600/ml by bead bashing at 4° C. in RB1 buffer (120 mM K-glutamate, 15 mM KCl, 5 mM NaCl, 2 mM MnCl2, 2 mM MgCl2, 20 mM Hepes-KOH, pH 7.2) containing freshly added protease inhibitors (Holthuis et al., (1998).
(§3) Lysates were centrifuged at 700 g for 10 min at 4° C. and supernatants (0.25 ml per reaction) preincubated with NEM (1 mM) for 10 min at 37° C. The reaction was initiated by addition of 5 nmol of NBD-Cer in 0.1 ml RB1 buffer and incubation continued for 15 min. Lipids were extracted by addition of 1.7 ml chloroform:methanol (1:2.2), dried under N2 and subjected to butanol/water partitioning. Lipids recovered from the butanol phase were separated by one-dimensional TLC for 30 min in solvent I: chloroform/methanol/4.2 M NH4OH (9:7:3, v/v), followed by 30 min in solvent II: chloroform/methanol/acetic acid (45:30:7, v/v). Fluorescent images were recorded on a STORM 860 Imaging Analysis System (Molecular Dynamics, Sunnyvale, Calif.) and analysed with ImageQuant software.

[5] = target: T2, human SMS2 (Homo sapiens, UniProt Q8NHU3); assay: SM synthase assay on lysates of SMS2-expressing yeast cells; format: biochemical
T2 construct: members for which full-length cDNAs could be obtained were cloned into a yeast multicopy, GALL promotor plasmid; His tag (from vector pYES2.1/V5-His-TOPO) (C); made in house; host or cells: Saccharomyces cerevisiae strain IAY11 (unpurified post-nuclear lysate)
T2 sequence (Q8NHU3 1-365): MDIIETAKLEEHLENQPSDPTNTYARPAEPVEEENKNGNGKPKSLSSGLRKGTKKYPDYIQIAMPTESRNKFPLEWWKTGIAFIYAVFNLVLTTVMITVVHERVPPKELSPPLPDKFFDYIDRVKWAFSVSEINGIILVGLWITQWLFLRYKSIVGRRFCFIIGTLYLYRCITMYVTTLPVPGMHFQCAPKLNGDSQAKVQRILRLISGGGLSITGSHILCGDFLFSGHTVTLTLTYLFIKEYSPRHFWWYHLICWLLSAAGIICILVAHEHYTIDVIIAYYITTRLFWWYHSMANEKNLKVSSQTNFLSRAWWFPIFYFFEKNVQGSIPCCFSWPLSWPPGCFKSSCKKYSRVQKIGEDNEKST
Protocol: as §2, §3

Structure (SMILES)	effect on yeast-associated SMases [1]	effect on mammalian SM synthase [2]	sensitivity of mammalian SM synthase [3]	inhibition of SM synthesis (in words) [4]	extent of inhibition of SMS1-mediated SM synthesis ([4]; D609) [%]	inhibition of SM synthesis (in words) [5]	sensitivity of SMS2 to the drug relative to SMS1 [5]
CCN1C(=O)C=CC1=O [NEM, N-ethylmaleimide]	potent inhibitor	does not affect					
S=C([S-])OC1CC2CC1C1CCCC21.[K+] (stereo not shown) [D609, O-tricyclo[5.2.1.0^2,6]dec-9-yl dithiocarbonate potassium salt]			sensitive	inhibited SM synthesis in a dose-dependent manner	50	inhibited SM synthesis in a dose-dependent manner	two-fold less sensitive
